According to PubChem BioAssay (NCI):
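Following 48 hours of exposure in 96-well plates, responses at five concentrations were used to interpolate endpoints linearly. The concentration for full growth arrest is given as TGI.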

Legend:
Assay in all cases: DTP human tumour cell line panel, 48 h
KM12 colon = system: KM12 colon
SNB-75 CNS = system: SNB-75 CNS
A549 NSCLC = system: A549 NSCLC
SK-OV-3 ovarian = system: SK-OV-3 ovarian
HCT-15 colon = system: HCT-15 colon
UACC-257 melanoma = system: UACC-257 melanoma
OVCAR-8 ovarian = system: OVCAR-8 ovarian
SF-295 CNS = system: SF-295 CNS
RXF 393 renal = system: RXF 393 renal
M14 melanoma = system: M14 melanoma
HOP-18 NSCLC = system: HOP-18 NSCLC
SW-620 colon = system: SW-620 colon
RPMI-8226 leukemia = system: RPMI-8226 leukemia
DLD-1 colon = system: DLD-1 colon
SK-MEL-5 melanoma = system: SK-MEL-5 melanoma
RXF-631 renal = system: RXF-631 renal
SN12C renal = system: SN12C renal
OVCAR-3 ovarian = system: OVCAR-3 ovarian
SNB-19 CNS = system: SNB-19 CNS
LOX IMVI melanoma = system: LOX IMVI melanoma
TK-10 renal = system: TK-10 renal
HCT-116 colon = system: HCT-116 colon
EKVX NSCLC = system: EKVX NSCLC
COLO 205 colon = system: COLO 205 colon
OVCAR-5 ovarian = system: OVCAR-5 ovarian
U251 CNS = system: U251 CNS
CAKI-1 renal = system: CAKI-1 renal
HL-60(TB) leukemia = system: HL-60(TB) leukemia
NCI-H23 lung = system: NCI-H23 lung
NCI-H522 lung = system: NCI-H522 lung
SK-MEL-2 melanoma = system: SK-MEL-2 melanoma
UACC-62 melanoma = system: UACC-62 melanoma
K-562 leukemia = system: K-562 leukemia
OVCAR-4 ovarian = system: OVCAR-4 ovarian
ACHN renal = system: ACHN renal
MALME-3M melanoma = system: MALME-3M melanoma
NCI-H226 lung = system: NCI-H226 lung
CCRF-CEM leukemia = system: CCRF-CEM leukemia
DMS 273 small cell lung = system: DMS 273 small cell lung
IGROV1 ovarian = system: IGROV1 ovarian
A498 renal = system: A498 renal
SF-539 CNS = system: SF-539 CNS
M19-MEL melanoma = system: M19-MEL melanoma
HT29 colon = system: HT29 colon
786-0 renal = system: 786-0 renal
UO-31 renal = system: UO-31 renal
DMS 114 small cell lung = system: DMS 114 small cell lung
LXFL 529 NSCLC = system: LXFL 529 NSCLC
SNB-78 CNS = system: SNB-78 CNS
SK-MEL-28 melanoma = system: SK-MEL-28 melanoma
MOLT-4 leukemia = system: MOLT-4 leukemia
SF-268 CNS = system: SF-268 CNS
HOP-92 NSCLC = system: HOP-92 NSCLC
KM20L2 colon = system: KM20L2 colon
HCC-2998 colon = system: HCC-2998 colon

Measured: TGI

COC(=O)/C=c1\s/c(=C\C(=O)OC)c2ccccc12
> 100 µM: all assays above
